From article PMC9862034, “Novel Antioxidant Peptides from Pearl Shell Meat Hydrolysate and Their Antioxidant Activity Mechanism” (Molecules, 2023)
Converted amounts (≈) assume the structure as drawn. Like-named read-outs stand apart in the source and are kept apart here. No end group written: not given here.

Tests used:
HepG2 cells [1] = test: cells; settings: for EC50 (cellular antioxidant activity): 1 h
Description: Obtained from National Collection of Authenticated Cell Cultural (Shanghai, China), HepG2 cells between 20 and 35 passages were grown in medium (DMEM supplemented with 10% fetal bovine serum, 1% antibiotic–antimycotic solution) in a 5% CO2 incubator at 37 °C.
Cellular antioxidant activity (CAA) was determined according to the method of Wolfe et al.. HepG2 cells were seeded in 96-well plates (6 × 10^4 cells/well) and cultured for 24 h. DCFH-DA working solution (50 µL, 50 µM) and 50 µL of medium with sample (0.005–0.1 mg/mL) were added in the sample treated group. DCFH-DA working solution (50 µL, 50 µM) and sterile water (50 µL) were added to the control group and the blank group. After incubated for 1 h, the cells were washed with PBS. Then, AAPH working solution (100 µL, […]) was added to the sample treated group and the control group, and fresh medium was added to the blank group. Fluorescence values were determined every 5 min for 1 h at an excitation wavelength of 485 nm and a determination wavelength of 528 nm. […] The CAA unit was calculated by the area of fluorescence curve (AUC), as shown in Equation (3). […] The Trolox equivalent (TEAC µM TE/g peptides) was calculated to represent the CAA value. (3) CAA=[1−(AUCt−AUCo)/(AUCc−AUCo)]×100 where AUCt, AUCc, and AUCo were the fluorescence curve area of the test sample, the control, and the blank group, respectively.

HepG2 cells [2] = type: cell-based
Description: HepG2 cells were seeded in 96-well plates (1 × 10^4 cells/well) and cultured for 48 h. To the AAPH damage group, we added 150 µL of fresh medium containing AAPH (final concentration 0.025–25 mM), and to the control group, we added fresh medium without AAPH. After culturing for 24 h, cell viability was determined by the MTT method. HepG2 cells were seeded in 96-well plates (1 × 10^4 cells/well) and cultured for 24 h. To the sample treated group, we added 150 µL of fresh medium containing samples (0.025–0.2 mg/mL). To the control group and AAPH damage group, we added fresh medium without samples. After treating for 24 h, to the sample treated group and AAPH damage group, we added 50 µL of fresh medium containing AAPH (final concentrations of 0.25 and 10 mM). After culturing for 24 h, cell viability was determined.

HepG2 cells [3] = test system: HepG2 cells; design: method as in 2 sources, ref 23 = [23]; PMID 28764069; doi:10.1016/j.foodchem.2017.05.144; 23. Liang R. Zhang Z. Lin S. Effects of pulsed electric field on intracellular antioxidant activity and antioxidant enzyme regulating capacities of pine nut ( Pinus koraiensis ) peptide QDHCH in HepG2 ||| ref 24 = [24]; PMID 29195889; doi:10.1016/j.foodres.2016.10.023; 24. Wang L. Ding L. Yu Z. Zhang T. Ma S. Liu J. Intracellular ROS scavenging and antioxidant enzyme regulating capacities of corn gluten meal-derived antioxidant peptides in HepG2 cells Food Res. Int.; settings: related report, pine nut peptide; cited from earlier work
Description: The principle of CAA is that intracellular lipase degrades the fluorescent probe DCFH-DA to DCFH, which is oxidized to fluorescent DCF by intracellular free radicals under AAPH induction, and the antioxidant peptide can protect the probe from oxidation. […] In related reports, ...

Row | Compound | EC50 (cellular antioxidant activity) (HepG2 cells [1]) [µg/mL] | cell viability, 50% cell viability model (HepG2 cells [2]; 24 h, 0.2 mg/mL) [%] | cell viability, 80% cell viability model (HepG2 cells [2]; 24 h, 0.2 mg/mL) [%] | also measured
1 | N[C@@H](CCC(=O)N[C@@H](CS)C(=O)NCC(=O)O)C(=O)O [GSH, Glutathione, reference compound] | – | – | – | CAA Value (HepG2 cells [1]; HepG2, Trolox equivalent, Trolox as standard antioxidant): 4.593 mM TE/g Peptide; EC50 (HepG2 cells [1]; Homo sapiens, HepG2, 1 h, read-out: EC50 (cellular antioxidant activity)): 30 µg/mL (≈ 97.6 µM); cell viability, 50% cell viability model (HepG2 cells [2]; HepG2, AAPH-induced damage (0.25 mM as printed), sample 0.2 mg/mL 24 h then AAPH 24 h, MTT, AAPH damage group 49.51%): 57.60%; cell viability, 80% cell viability model (HepG2 cells [2]; HepG2, AAPH-induced damage (10 mM [sic]), sample 0.2 mg/mL 24 h then AAPH 24 h, MTT, AAPH damage group 79.41%): 92.08%
2 | TGVAS [TGVAS] | 37 | 64.69 | – | –
3 | SPSSS [SPSSS] | 27 | 73.52 | 101.09 | –
4 | NSVAA [NSVAA] | 95 | 70.55 | 100.09 | –
5 | SGTAV [SGTAV] | 9 | 73.61 | 107.43 | –
6 | GGSLT [GGSLT] | 64 | 68.25 | – | –
7 | GGSIT [GGSIT] | 73 | 66.35 | 96.06 | –
8 | QDHCH [pine nut peptide of a related report] | – | – | – | EC50 value (cellular antioxidant activity) (HepG2 cells [3]): 130 µg/mL
